Results on 31 compounds are retold here after ChEMBL document CHEMBL1121401, “Potential antitumor agents. 33. Quantitative structure--activity relationships for mutagenic activity and antitumor activity of substituted 4'-(9-acridinylamino)methanesulfonanilide derivatives” (J Med Chem, 1980).

Active and inactive are the calls of the source. The calls are words filed in the database; no cut-off is given here.

For data set [1], the species on record is Mus musculus.
Description: Drug dose in (mg/kg)/day to provide an increase in life span of 40% was determined; nr refers to Particular level of biological response required not reached before drug toxicity supervened
The species named for data set [2] is Mus musculus. This is another data set of the same source.
Description: Drug dose in (mg/kg)/day to provide an increase in life span of 40% was determined;nr refers to Particular level of biological response required not reached before drug toxicity supervened
A further data set deals with Salmonella typhimurium. To be noted: Salmonella enterica subsp. enterica serovar Typhimurium.

Description for physchem: Ionization constant (pKa)

As to `CS(=O)(=O)Nc1ccc(Nc2c3ccccc3nc3ccccc23)c(Cl)c1`, the pKa – broadly, the pH at which an ionisable group is half protonated – in the data set “physchem” was 6.34. In addition, in the data set listed under Mus musculus [1], the “Log 1/D40” value is “Not reached”. In “physchem”, `CS(=O)(=O)Nc1ccc(Nc2c3ccccc3nc3ccccc23)cc1Cl` showed a pKa of 6.44. In the data set filed under Mus musculus [1], the “Log 1/D40” value was “Not reached”. Turning to `CS(=O)(=O)Nc1ccc(Nc2c3ccccc3nc3c(Cl)cccc23)cc1`, the pKa in “physchem” was 5.92. Moreover, the “Log 1/D40” value in the data set filed under Mus musculus [2] is on record as “Not reached”.

As for `CNc1ccc2c(Nc3ccc(NS(C)(=O)=O)cc3)c3ccccc3nc2c1`, the pKa in “physchem” was 9.3. With `CS(=O)(=O)Nc1ccc(Nc2c3ccccc3nc3cc(S(C)(=O)=O)ccc23)cc1`, the pKa in the data set “physchem” was 5.65. Also, in the data set listed under Mus musculus [1], the “Log 1/D40” value is “Not reached”. On to `CS(=O)(=O)Nc1ccc(Nc2c3ccccc3nc3cc(C#N)ccc23)cc1`, for which the pKa in the data set “physchem” was 5.75. Further, the “Log 1/D40” value in the data set listed under Mus musculus [1] was “Not reached”. In the data set with Salmonella typhimurium, the “Log M50” value was “inactive”. The compound `CS(=O)(=O)Nc1ccc(Nc2c3ccccc3nc3cc(Br)ccc23)cc1` registered a pKa in “physchem” of 6.56. In “physchem”, `Cc1cccc2nc3ccccc3c(Nc3ccc(NS(C)(=O)=O)cc3)c12` returned a pKa of 6.43. On to `CS(=O)(=O)Nc1ccc(Nc2c3ccccc3nc3cc(NS(C)(=O)=O)ccc23)cc1`, for which, in the data set on Salmonella typhimurium, the “Log M50” value was “inactive”. In “physchem”, `CS(=O)(=O)Nc1ccc(Nc2c3ccccc3nc3cccc(Cl)c23)cc1` displayed a pKa of 5.86. As for `CS(=O)(=O)Nc1ccc(Nc2c3ccccc3nc3ccc([N+](=O)[O-])cc23)cc1`, in the data set listed under Mus musculus [1], the “Log 1/D40” value is “Not reached”. Take `Cc1ccc2c(Nc3ccc(NS(C)(=O)=O)cc3)c3ccccc3nc2c1`: in “physchem”, the pKa was determined as 7.49.

In turn, `CS(=O)(=O)Nc1ccc(Nc2c3ccccc3nc3cc(Cl)ccc23)cc1` displayed a pKa in “physchem” of 6.57. The compound `COc1ccc2nc3ccccc3c(Nc3ccc(NS(C)(=O)=O)cc3)c2c1` gave a pKa in the data set “physchem” of 6.87. The “Log 1/D40” value in the data set filed under Mus musculus [1] is given as “Not reached”. Compound `COc1cccc2c(Nc3ccc(NS(C)(=O)=O)cc3)c3ccccc3nc12` displayed a pKa in “physchem” of 7.15. Take `Cc1cc(Nc2c3ccccc3nc3ccccc23)ccc1NS(C)(=O)=O`: the pKa in the data set “physchem” amounted to 7.08. Besides, in the data set listed under Mus musculus [1], the “Log 1/D40” value is recorded as “Not reached”. Take `COc1cccc2nc3ccccc3c(Nc3ccc(NS(C)(=O)=O)cc3)c12`: in the data set filed under Mus musculus [1], the “Log 1/D40” value is listed as “Not reached”.

Consider `CS(=O)(=O)Nc1ccc(Nc2c3ccccc3nc3cc(N=[N+]=[N-])ccc23)cc1`, for which the pKa in the data set “physchem” worked out at 7. For `CS(=O)(=O)Nc1ccc(Nc2c3ccccc3nc3cnccc23)cc1`, the “Log 1/D40” value in the data set filed under Mus musculus [1] is “Not reached”. Regarding `Cc1cc(NS(C)(=O)=O)ccc1Nc1c2ccccc2nc2ccccc12`, the pKa in the data set “physchem” was found to be 7.38. The compound `CS(=O)(=O)Nc1ccc(Nc2c3ccccc3nc3ccccc23)c(N)c1` yielded a pKa in “physchem” of 7.65. Consider `COc1cc(Nc2c3ccccc3nc3ccccc23)ccc1NS(C)(=O)=O` [o-Amsacrine], for which the pKa in “physchem” was found to be 7.03. Also, the “Log 1/D40” value in the data set filed under Mus musculus [1] is given as “Not reached”. `CS(=O)(=O)Nc1ccc(Nc2c3ccccc3nc3ccccc23)c([N+](=O)[O-])c1` came in with a pKa in the data set “physchem” of 4.86. Also, the “Log 1/D40” value in the data set filed under Mus musculus [1] is “Not reached”. In addition, the “Log M50” value in the data set on Salmonella typhimurium is “inactive”. Take `C[N+](C)=[N+]=Nc1ccc2c(Nc3ccc(NS(C)(=O)=O)cc3)c3ccccc3nc2c1`: the pKa in “physchem” was determined as 7.13. As for `CCCCCCS(=O)(=O)Nc1ccc(Nc2c3ccccc3nc3ccccc23)cc1`, in the data set filed under Mus musculus [1], the “Log 1/D40” value was “Not reached”. Regarding `COC(=O)Nc1ccc2c(Nc3ccc(NS(C)(=O)=O)cc3)c3ccccc3nc2c1`, the pKa in the data set “physchem” came to 7.48.

Take `CS(=O)(=O)Nc1ccc(Nc2c3ccccc3nc3ccc(Cl)cc23)cc1`: in the data set “physchem”, the pKa was determined as 6.42. In addition, the “Log 1/D40” value in the data set filed under Mus musculus [1] was “Not reached”.

In the case of `CS(=O)(=O)Nc1ccc(Nc2c3ccccc3nc3ccccc23)cc1[N+](=O)[O-]`, in the data set listed under Mus musculus [1], the “Log 1/D40” value is listed as “Not reached”. As to `COc1ccc2c(Nc3ccc(NS(C)(=O)=O)cc3)c3ccccc3nc2c1`, the pKa in “physchem” came out at 7.57. Turning to `Cc1ccc2nc3ccccc3c(Nc3ccc(NS(C)(=O)=O)cc3)c2c1`, the pKa in “physchem” is 7.23. For the same compound, the “Log 1/D40” value in the data set filed under Mus musculus [1] is on record as “Not reached”. In “physchem”, `CS(=O)(=O)Nc1ccc(Nc2c3ccccc3nc3ccc(C(N)=O)cc23)cc1` had a pKa of 6.34. In addition, in the data set filed under Mus musculus [1], the “Log 1/D40” value is recorded as “Not reached”.
